Test results taken from patent US20140357713A1, “ANTIMICROBIAL COMPOUNDS AND METHODS OF USE” (NexMed Holdings, Inc., priority 2012, published 2014).

How the values were obtained:
Assay type in all cases: cell-based
Staphylococcus aureus = experiment: Extended time kill study, Example 34 (0 to 24 h)
In short: (§1)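 Strain suspensions prepared as for MIC testing were mixed 1:1 with compound solution at higher multiples of MIC. Samples taken over 0 to 24 h were diluted in test medium and plated on agar, and colonies were counted after 24–48 h incubation.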

Pseudomonas aeruginosa = experiment: Extended time kill study, Example 34 (0 to 24 h)
In short: as §1

Candida albicans = experiment: Extended time kill study, Example 34 (0 to 24 h)
In short: as §1

Aspergillus niger = experiment: Extended time kill study, Example 34 (0 to 24 h)
In short: as §1

Escherichia coli = experiment: Extended time kill study, Example 34 (0 to 24 h)
In short: as §1

[1] = test system: Aspergillus niger (CMCC 98003); experiment: Time kill study, Example 33 (0 to 5 min); details: 1×MIC
In short: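 Viable counts (Log10 CFU/mL) came from colonies counted after 24–48 hrs on agar plates. Samples were drawn at 0 min, 30 sec, 1 min and 5 min from equal-volume mixtures of compound solution and strain suspension, then diluted in test medium; CLSI procedures followed.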

CCCCCCCCCCCCOC(=O)C(C)NCCN(CC)CC.Cl (stereo not shown) [Nex-62, Dodecyl 2-((2-(diethylamino)ethyl)amino)propanoate dihydrochloride]
Viable counts, Staphylococcus aureus time kill study (Staphylococcus aureus; 1 × MIC, 1 h): 6.00 Log10 CFU/mL | Viable counts, Staphylococcus aureus time kill study (Staphylococcus aureus; 1 × MIC, 2 h): 5.66 Log10 CFU/mL | Viable counts, Staphylococcus aureus time kill study (Staphylococcus aureus; 1 × MIC, 4 h): 4.70 Log10 CFU/mL | Viable counts, Staphylococcus aureus time kill study (Staphylococcus aureus; 1 × MIC, 6 h): 4.48 Log10 CFU/mL | Viable counts, Staphylococcus aureus time kill study (Staphylococcus aureus; 1 × MIC, 24 h): <1 Log10 CFU/mL | Viable counts, Staphylococcus aureus time kill study (Staphylococcus aureus; 1×MIC, time 0): 6.23 Log10 CFU/mL | Viable counts, Staphylococcus aureus time kill study (Staphylococcus aureus; 2 × MIC, 1 h): 5.30 Log10 CFU/mL | Viable counts, Staphylococcus aureus time kill study (Staphylococcus aureus; 2 × MIC, 2 h): <3 Log10 CFU/mL | Viable counts, Staphylococcus aureus time kill study (Staphylococcus aureus; 2 × MIC, 4 h): <3 Log10 CFU/mL | Viable counts, Staphylococcus aureus time kill study (Staphylococcus aureus; 2 × MIC, 6 h): <3 Log10 CFU/mL | Viable counts, Staphylococcus aureus time kill study (Staphylococcus aureus; 2 × MIC, 24 h): <1 Log10 CFU/mL | Viable counts, Staphylococcus aureus time kill study (Staphylococcus aureus; 2 × MIC, time 0): 6.25 Log10 CFU/mL | Viable counts, Staphylococcus aureus time kill study (Staphylococcus aureus; 4 × MIC, 1 h): 5.30 Log10 CFU/mL | Viable counts, Staphylococcus aureus time kill study (Staphylococcus aureus; 4 × MIC, 2 h): <3 Log10 CFU/mL | Viable counts, Staphylococcus aureus time kill study (Staphylococcus aureus; 4 × MIC, 4 h): <3 Log10 CFU/mL | Viable counts, Staphylococcus aureus time kill study (Staphylococcus aureus; 4 × MIC, 6 h): <3 Log10 CFU/mL | Viable counts, Staphylococcus aureus time kill study (Staphylococcus aureus; 4 × MIC, 24 h): <1 Log10 CFU/mL | Viable counts, Staphylococcus aureus time kill study (Staphylococcus aureus; 4 × MIC, time 0): 6.20 Log10 CFU/mL | Viable counts, Pseudomonas aeruginosa time kill study (Pseudomonas aeruginosa; 1 × MIC, 1 h): <1 Log10 CFU/mL | Viable counts, Pseudomonas aeruginosa time kill study (Pseudomonas aeruginosa; 1 × MIC, 2 h): <1 Log10 CFU/mL | Viable counts, Pseudomonas aeruginosa time kill study (Pseudomonas aeruginosa; 1 × MIC, 4 h): <1 Log10 CFU/mL | Viable counts, Pseudomonas aeruginosa time kill study (Pseudomonas aeruginosa; 1 × MIC, 6 h): <1 Log10 CFU/mL | Viable counts, Pseudomonas aeruginosa time kill study (Pseudomonas aeruginosa; 1 × MIC, 24 h): <1 Log10 CFU/mL | Viable counts, Pseudomonas aeruginosa time kill study (Pseudomonas aeruginosa; 1×MIC, time 0): 5.20 Log10 CFU/mL | Viable counts, Pseudomonas aeruginosa time kill study (Pseudomonas aeruginosa; 2 × MIC, 1 h): <1 Log10 CFU/mL | Viable counts, Pseudomonas aeruginosa time kill study (Pseudomonas aeruginosa; 2 × MIC, 2 h): <1 Log10 CFU/mL | Viable counts, Pseudomonas aeruginosa time kill study (Pseudomonas aeruginosa; 2 × MIC, 4 h): <1 Log10 CFU/mL | Viable counts, Pseudomonas aeruginosa time kill study (Pseudomonas aeruginosa; 2 × MIC, 6 h): <1 Log10 CFU/mL | Viable counts, Pseudomonas aeruginosa time kill study (Pseudomonas aeruginosa; 2 × MIC, 24 h): <1 Log10 CFU/mL | Viable counts, Pseudomonas aeruginosa time kill study (Pseudomonas aeruginosa; 2 × MIC, time 0): 5.25 Log10 CFU/mL | Viable counts, Pseudomonas aeruginosa time kill study (Pseudomonas aeruginosa; 4 × MIC, 1 h): <1 Log10 CFU/mL | Viable counts, Pseudomonas aeruginosa time kill study (Pseudomonas aeruginosa; 4 × MIC, 2 h): <1 Log10 CFU/mL | Viable counts, Pseudomonas aeruginosa time kill study (Pseudomonas aeruginosa; 4 × MIC, 4 h): <1 Log10 CFU/mL | Viable counts, Pseudomonas aeruginosa time kill study (Pseudomonas aeruginosa; 4 × MIC, 6 h): <1 Log10 CFU/mL | Viable counts, Pseudomonas aeruginosa time kill study (Pseudomonas aeruginosa; 4 × MIC, 24 h): <1 Log10 CFU/mL | Viable counts, Pseudomonas aeruginosa time kill study (Pseudomonas aeruginosa; 4 × MIC, time 0): 5.23 Log10 CFU/mL | Viable counts in Log10 CFU/mL (Candida albicans; 1 × MIC, 1 h): 5.75 Log10 CFU/mL | Viable counts in Log10 CFU/mL (Candida albicans; 1 × MIC, 2 h): 5.78 Log10 CFU/mL | Viable counts in Log10 CFU/mL (Candida albicans; 1 × MIC, 4 h): 6.04 Log10 CFU/mL | Viable counts in Log10 CFU/mL (Candida albicans; 1 × MIC, 6 h): 6.21 Log10 CFU/mL | Viable counts in Log10 CFU/mL (Candida albicans; 1 × MIC, 24 h): >6 Log10 CFU/mL | Viable counts in Log10 CFU/mL (Candida albicans; 1 × MIC, 0 h): 5.74 Log10 CFU/mL | Viable counts in Log10 CFU/mL (Candida albicans; 2 × MIC, 1 h): 5.68 Log10 CFU/mL | Viable counts in Log10 CFU/mL (Candida albicans; 2 × MIC, 2 h): 5.67 Log10 CFU/mL | Viable counts in Log10 CFU/mL (Candida albicans; 2 × MIC, 4 h): 5.68 Log10 CFU/mL | Viable counts in Log10 CFU/mL (Candida albicans; 2 × MIC, 6 h): 5.58 Log10 CFU/mL | Viable counts in Log10 CFU/mL (Candida albicans; 2 × MIC, 24 h): >6 Log10 CFU/mL | Viable counts in Log10 CFU/mL (Candida albicans; 2 × MIC, 0 h): 5.76 Log10 CFU/mL | Viable counts in Log10 CFU/mL (Candida albicans; 4 × MIC, 1 h): 5.32 Log10 CFU/mL | Viable counts in Log10 CFU/mL (Candida albicans; 4 × MIC, 2 h): 5.33 Log10 CFU/mL | Viable counts in Log10 CFU/mL (Candida albicans; 4 × MIC, 4 h): 5.00 Log10 CFU/mL | Viable counts in Log10 CFU/mL (Candida albicans; 4 × MIC, 6 h): 4.53 Log10 CFU/mL | Viable counts in Log10 CFU/mL (Candida albicans; 4 × MIC, 24 h): <1 Log10 CFU/mL | Viable counts in Log10 CFU/mL (Candida albicans; 4 × MIC, 0 h): 5.69 Log10 CFU/mL | Viable counts in Log10 CFU/mL (Aspergillus niger; 1 × MIC, 1 h): 5.53 Log10 CFU/mL | Viable counts in Log10 CFU/mL (Aspergillus niger; 1 × MIC, 2 h): 5.51 Log10 CFU/mL | Viable counts in Log10 CFU/mL (Aspergillus niger; 1 × MIC, 4 h): 5.15 Log10 CFU/mL | Viable counts in Log10 CFU/mL (Aspergillus niger; 1 × MIC, 6 h): 4.78 Log10 CFU/mL | Viable counts in Log10 CFU/mL (Aspergillus niger; 1 × MIC, 24 h): 4 Log10 CFU/mL | Viable counts in Log10 CFU/mL (Aspergillus niger; 1 × MIC, 0 h): 5.51 Log10 CFU/mL | Viable counts in Log10 CFU/mL (Aspergillus niger; 2 × MIC, 1 h): 5.48 Log10 CFU/mL | Viable counts in Log10 CFU/mL (Aspergillus niger; 2 × MIC, 2 h): 5.57 Log10 CFU/mL | Viable counts in Log10 CFU/mL (Aspergillus niger; 2 × MIC, 4 h): 5.08 Log10 CFU/mL | Viable counts in Log10 CFU/mL (Aspergillus niger; 2 × MIC, 6 h): 5.38 Log10 CFU/mL | Viable counts in Log10 CFU/mL (Aspergillus niger; 2 × MIC, 24 h): 5.58 Log10 CFU/mL | Viable counts in Log10 CFU/mL (Aspergillus niger; 2 × MIC, 0 h): 5.49 Log10 CFU/mL | Viable counts in Log10 CFU/mL (Aspergillus niger; 4 × MIC, 1 h): 5.49 Log10 CFU/mL | Viable counts in Log10 CFU/mL (Aspergillus niger; 4 × MIC, 2 h): 5.49 Log10 CFU/mL | Viable counts in Log10 CFU/mL (Aspergillus niger; 4 × MIC, 4 h): 5.00 Log10 CFU/mL | Viable counts in Log10 CFU/mL (Aspergillus niger; 4 × MIC, 6 h): 5.20 Log10 CFU/mL | Viable counts in Log10 CFU/mL (Aspergillus niger; 4 × MIC, 24 h): 3.85 Log10 CFU/mL | Viable counts in Log10 CFU/mL (Aspergillus niger; 4 × MIC, 0 h): 5.56 Log10 CFU/mL | Viable counts, Escherichia coli time kill study (Escherichia coli; 1 × MIC, 1 h): 1 Log10 CFU/mL | Viable counts, Escherichia coli time kill study (Escherichia coli; 1 × MIC, 2 h): 1 Log10 CFU/mL | Viable counts, Escherichia coli time kill study (Escherichia coli; 1 × MIC, 4 h): <1 Log10 CFU/mL | Viable counts, Escherichia coli time kill study (Escherichia coli; 1 × MIC, 6 h): 2.18 Log10 CFU/mL | Viable counts, Escherichia coli time kill study (Escherichia coli; 1 × MIC, 24 h): 7.99 Log10 CFU/mL | Viable counts, Escherichia coli time kill study (Escherichia coli; 1×MIC, time 0): 5.06 Log10 CFU/mL | Viable counts, Escherichia coli time kill study (Escherichia coli; 2 × MIC, 1 h): <1 Log10 CFU/mL | Viable counts, Escherichia coli time kill study (Escherichia coli; 2 × MIC, 2 h): <1 Log10 CFU/mL | Viable counts, Escherichia coli time kill study (Escherichia coli; 2 × MIC, 4 h): <1 Log10 CFU/mL | Viable counts, Escherichia coli time kill study (Escherichia coli; 2 × MIC, 6 h): <1 Log10 CFU/mL | Viable counts, Escherichia coli time kill study (Escherichia coli; 2 × MIC, 24 h): <1 Log10 CFU/mL | Viable counts, Escherichia coli time kill study (Escherichia coli; 2 × MIC, time 0): 5.18 Log10 CFU/mL | Viable counts, Escherichia coli time kill study (Escherichia coli; 4 × MIC, 1 h): <1 Log10 CFU/mL | Viable counts, Escherichia coli time kill study (Escherichia coli; 4 × MIC, 2 h): <1 Log10 CFU/mL | Viable counts, Escherichia coli time kill study (Escherichia coli; 4 × MIC, 4 h): <1 Log10 CFU/mL | Viable counts, Escherichia coli time kill study (Escherichia coli; 4 × MIC, 6 h): <1 Log10 CFU/mL | Viable counts, Escherichia coli time kill study (Escherichia coli; 4 × MIC, 24 h): <1 Log10 CFU/mL | Viable counts, Escherichia coli time kill study (Escherichia coli; 4 × MIC, time 0): 5.12 Log10 CFU/mL | Viable counts, Aspergillus niger time kill study ([1]; 0.5 min): 5.32 Log10 CFU/mL | Viable counts, Aspergillus niger time kill study ([1]; 1 min): 5.21 Log10 CFU/mL | Viable counts, Aspergillus niger time kill study ([1]; 5 min): 5.02 Log10 CFU/mL | Viable counts, Aspergillus niger time kill study ([1]; time 0): 5.27 Log10 CFU/mL
